Several values for one entry are separate records, joined by “and”; a condition that tells them apart may be missing. Equal values may be shown once.
Legend:
Type in all cases: cell-based, Leishmania donovani
[1] = system: L. donovani 087/11 (Sb-intermediate) promastigotes; assay: microbe, parasite or virus in culture; details: for IC50: Leishmania donovani, read-out: Mean IC50 Promastigotes; for Promast: Amast Ratio: strain 087/11, Sb-intermediate; for Cross-Resistance Index (CRI50) Promast: strain 087/11, Sb-intermediate vs Sb-S
Text: (§1) L. donovani cloned strains with different Sb susceptibility backgrounds were derived from isolates obtained from VL patients at the B.P. Koirala Institute of Health Sciences, Dharan, Nepal: MHOM/NP/02/BPK282/0cl4 (Sb sensitive, Sb-S). MHOM/NP/02/BPK087/0cl11 (Sb intermediate, Sb-I) and MHOM/NP/02/BPK275/0cl18 (Sb resistance, Sb-R [13]). In addition, Milt-resistant parasites raised against these three Sb sensitivity backgrounds and the Sb-sensitive strain (MHOM/ET/67:LV82) was also used in studies. Luciferase expressing promastigotes for the LV82 and Nepalese strains were prepared using previously published methods and the integrative construct (a gift from Dr D.F. Smith), designated pGL1313, contained pSSU-int fragments to facilitate integration into the ribosomal RNA locus of Leishmania.
(§2) Luciferin solution (1 µg/mL in 20 µL medium without FCS) was added to the appropriate wells of the 96-well plate at the end of the experiment and the amount of light emitted/well was measured using a luminometer (Biotek Synergy HT, relative light units) using a wavelength/bandwidth of 440/40 nm, or IVIS® imaging (Spectrum Living Image system®, total flux, photons/sec).
(§3) The effect of drug treatment on parasite survival was determined by calculating the mean suppression in the light emitted from the drug-treated experimental sample compared to the mean control value and used to calculate the IC50 using Grafit® software (version 5.0, Erithacus Software, East Grinstead, West Sussex, UK). The effect of drug alone on the viability of uninfected macrophages was determined using the same experimental protocol above, but cell viability was determined using an alamar blue colorimetric assay. […] The effect of drug treatment on cell survival, which correlates with the magnitude of dye reduction, was expressed as percentage viability (or alamar blue reduction) and determined using the formula provided in the manufacturer’s protocol % alamar blue reduction=(εoxλ)(Aλ1)−(εoxλ1)(Aλ2)/(εredλ1)(A^′λ2)−(εredλ2)(A^′λ1)x100
(§4) Cross resistance (CRI50) indexes were determined as Cross selectivity indices (CRI)=mean IC50 value for the relevant drug−resistant strain i.e., Sb−I or Sb−R / mean IC50 value drug−sensitive strain Sb−S

[2] = system: L. donovani 275/18 (Sb-resistant) intracellular amastigotes; assay: Intracellular amastigote assay, Sb-resistant strain 275/18; details: for IC50: Leishmania donovani, read-out: Mean IC50 Amastigotes; for Cross-Resistance Index (CRI50) Amast: strain 275/18, Sb-resistant vs Sb-S; for Selectivity Index (SI50): strain 275/18, Sb-resistant, macrophage CC50 / amastigote IC50
Text: as §1
In the macrophage studies, the method described in previous studies was used as follows. Briefly, bone-marrow-derived BALB/c macrophages (1–2 × 10^5) in 100 µL complete RPMI 1640 medium were added to the wells of a 96 well plate and left to adhere for 24 h at 37 °C, 5% CO₂/95% air. The medium was removed and 100 µL of the appropriate L. donovani luciferase-expressing promastigotes line (parasite: host cell ratio 1:10, 1:20 or 1:40) was added to each well, the ratio used reflected the infectivity of the strain and ensured that control data gave a bioluminescent signal within the same range. […] The variability in infectivity complicates strain to strain comparisons, but we decided to focus on achieving good infection levels in controls so that the effect of drug treatment could be determined. It is possible that intracellular macrophage parasites could have been at different developmental stages at 24 h post-infection. […] Therefore, we assumed that the effect of compounds on the amastigote stage rather than the promastigotes stage was determined in in vitro macrophage studies.
The plate was incubated for a further 24 h, the medium removed, and each well washed with PBS to eliminate non-internalized parasites, which were monitored microscopically. When the wells were devoid of external parasites, 100 µL of the medium alone (control) or appropriate APC compound was then added (0.01–0.197 µg/mL, n = 3/treatment). […]. All plates were incubated for 72 h at 37 °C, 5% CO₂/95% air. Wells with macrophage and with no drug or promastigotes added were used in control experiments.
as §2
The effect of drug treatment on parasite survival was determined by calculating the mean suppression in the light emitted from the drug-treated experimental sample compared to the mean control value and used to calculate the IC50 using Grafit® software (version 5.0, Erithacus Software, East Grinstead, West Sussex, UK). The effect of drug alone on the viability of uninfected macrophages was determined using the same experimental protocol above, but cell viability was determined using an alamar blue colorimetric assay. At the end of the incubation period, cells’ 10 µL resazurin solution (0.02% w/v) was added to control and drug treated cells and the absorbance of samples was read at 575 and 595 nm. The effect of drug treatment on cell survival, which correlates with the magnitude of dye reduction, was expressed as percentage viability (or alamar blue reduction) and determined using the formula provided in the manufacturer’s protocol % alamar blue reduction=(εoxλ)(Aλ1)−(εoxλ1)(Aλ2)/(εredλ1)(A^′λ2)−(εredλ2)(A^′λ1)x100 […]

[3] = system: L. donovani 282/4 (Sb-sensitive) intracellular amastigotes; assay: Intracellular amastigote assay, Sb-sensitive strain 282/4; details: strain 282/4, Sb-sensitive; for IC50: Leishmania donovani; for Selectivity Index (SI50): macrophage CC50 / amastigote IC50
Text: as §1
In the macrophage studies, the method described in previous studies was used as follows. […] It is possible that intracellular macrophage parasites could have been at different developmental stages at 24 h post-infection. […] Therefore, we assumed that the effect of compounds on the amastigote stage rather than the promastigotes stage was determined in in vitro macrophage studies.
The plate was incubated for a further 24 h, the medium removed, and each well washed with PBS to eliminate non-internalized parasites, which were monitored microscopically. […] Wells with macrophage and with no drug or promastigotes added were used in control experiments.
as §2, §3

[4] = system: L. donovani 275/18 Milt-Sb-resistant promastigotes; assay: Promastigote luciferase assay, Milt-resistant 275/18; details: for IC50: Leishmania donovani, read-out: Mean IC50 Value Promastigotes
Text: as §1
The anti-leishmanial activity of APC against L. donovani luciferase-expressing promastigotes was determined by adding of the appropriate 100 µL parasite line (10^6 cells/mL) to the wells of a 96-well plate and adding 100 µL medium alone (controls) or 100 µL of APC compound (0.01 µg/mL–6.25 µg/mL, n = 3/treatment). […].
as §2
The effect of drug treatment on parasite survival was determined by calculating the mean suppression in the light emitted from the drug-treated experimental sample compared to the mean control value and used to calculate the IC50 using Grafit® software (version 5.0, Erithacus Software, East Grinstead, West Sussex, UK). The effect of drug alone on the viability of uninfected macrophages was determined using the same experimental protocol above, but cell viability was determined using an alamar blue colorimetric assay. At the end of the incubation period, cells’ 10 µL resazurin solution (0.02% w/v) was added to control and drug treated cells and the absorbance of samples was read at 575 and 595 nm. The effect of drug treatment on cell survival, which correlates with the magnitude of dye reduction, was expressed as percentage viability (or alamar blue reduction) and determined using the formula provided in the manufacturer’s protocol % alamar blue reduction=(εoxλ)(Aλ1)−(εoxλ1)(Aλ2)/(εredλ1)(A^′λ2)−(εredλ2)(A^′λ1)x100
as §4

[5] = strain 275/18, Milt-Sb-resistant

CCCCCCCCCCCCOP(=O)([O-])OCC[N+](C)(C)C [APC12, dodecylphosphocholine]
IC50 [1]: 0.42 µg/mL and 1.19 µM
Promast: Amast Ratio [1]: 2.11
Cross-Resistance Index (CRI50) Promast [1]: 0.76
IC50 [2]: 0.23 µg/mL and 650 nM
Cross-Resistance Index (CRI50) Amast [2]: 0.88
Selectivity Index (SI50) [2]: 153.83
IC50 [3]: 0.26 µg/mL and 740 nM
Selectivity Index (SI50) [3]: 136.08
IC50 [4]: > 125 µg/mL and > 356 µM
Promast: Amast Ratio [4, 5]: >28.09

CCCCCCCCCCCCCCOP(=O)([O-])OCC[N+](C)(C)C [APC14, tetradecylphosphocholine]
IC50 [1]: 0.21 µg/mL and 550 nM
Promast: Amast Ratio [1]: 1.05
Cross-Resistance Index (CRI50) Promast [1]: 0.48
IC50 [2]: 0.28 µg/mL and 740 nM
Cross-Resistance Index (CRI50) Amast [2]: 2.33
Selectivity Index (SI50) [2]: 146.04
IC50 [3]: 0.12 µg/mL and 320 nM
Selectivity Index (SI50) [3]: 340.75
IC50 [4]: > 125 µg/mL and > 329 µM
Cross-Resistance Index (CRI50) Promast [4, 5]: 1.00

CCCCCCCCCCCCCCCCOP(=O)([O-])OCC[N+](C)(C)C [APC16, hexadecylphosphocholine, reference compound]
Promast: Amast Ratio [1]: 5.15
IC50 [2]: 0.51 µg/mL and 1.25 µM
IC50 [3]: 0.31 µg/mL and 760 nM
IC50 [4]: > 125 µg/mL and > 307 µM
Promast: Amast Ratio [4, 5]: 2.04
